Source: ChEMBL document CHEMBL5649166, “RIP3 induces apoptosis independent of pronecrotic kinase activity” (Mol Cell, 2014)

Tests used:
[1] = target: Ribosomal protein S6 kinase alpha-5 (Homo sapiens) (UniProt O75582); assay: Inhibition of human MSK1/RPS6KA5 using GRPRTSSFAEG as substrate at 1 uM in presence of 32P-ATP by Hotspot assay relative to control; values are per cent of control
[2] = target: CDK9/Cyclin K (Homo sapiens) (UniProt P50750+O75909); assay: Inhibition of human CDK9/cyclin K using KTFCGTPEYLAPEVRREPRILSEEEQEMFRDFDYIADWC as substrate at 1 uM in presence of 32P-ATP by Hotspot assay relative to control; values are per cent of control
[3] = target: Tyrosine-protein kinase SYK (Homo sapiens) (UniProt P43405); assay: Inhibition of human SYK using poly[Glu:Tyr] (4:1) as substrate at 1 uM in presence of 32P-ATP by Hotspot assay relative to control; values are per cent of control
[4] = target: T1, Serine/threonine-protein kinase NLK (Homo sapiens) (UniProt Q9UBE8); assay: Inhibition of human NLK using myelin basic protein as substrate at 1 uM in presence of 32P-ATP by Hotspot assay relative to control; values are per cent of control
T1 sequence (whole entry): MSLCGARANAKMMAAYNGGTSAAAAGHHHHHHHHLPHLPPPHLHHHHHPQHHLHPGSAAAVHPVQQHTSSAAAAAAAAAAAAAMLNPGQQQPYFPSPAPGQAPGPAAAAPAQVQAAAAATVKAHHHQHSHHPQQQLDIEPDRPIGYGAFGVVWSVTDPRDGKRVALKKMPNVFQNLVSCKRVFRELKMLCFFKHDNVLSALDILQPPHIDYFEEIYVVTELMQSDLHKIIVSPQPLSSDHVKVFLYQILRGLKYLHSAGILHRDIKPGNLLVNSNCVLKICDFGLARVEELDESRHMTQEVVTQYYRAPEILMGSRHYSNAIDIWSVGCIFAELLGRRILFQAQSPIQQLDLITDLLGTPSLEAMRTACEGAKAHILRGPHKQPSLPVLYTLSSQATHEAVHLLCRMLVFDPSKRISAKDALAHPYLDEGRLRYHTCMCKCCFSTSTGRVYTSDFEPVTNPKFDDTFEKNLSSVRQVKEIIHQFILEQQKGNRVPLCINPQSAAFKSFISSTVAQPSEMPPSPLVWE

[5] = target: T2, Tyrosine-protein kinase Mer (Homo sapiens) (UniProt Q12866); assay: Inhibition of human c-MER using poly[Glu:Tyr] (4:1) as substrate at 1 uM in presence of 32P-ATP by Hotspot assay relative to control; values are per cent of control
T2 sequence (whole entry): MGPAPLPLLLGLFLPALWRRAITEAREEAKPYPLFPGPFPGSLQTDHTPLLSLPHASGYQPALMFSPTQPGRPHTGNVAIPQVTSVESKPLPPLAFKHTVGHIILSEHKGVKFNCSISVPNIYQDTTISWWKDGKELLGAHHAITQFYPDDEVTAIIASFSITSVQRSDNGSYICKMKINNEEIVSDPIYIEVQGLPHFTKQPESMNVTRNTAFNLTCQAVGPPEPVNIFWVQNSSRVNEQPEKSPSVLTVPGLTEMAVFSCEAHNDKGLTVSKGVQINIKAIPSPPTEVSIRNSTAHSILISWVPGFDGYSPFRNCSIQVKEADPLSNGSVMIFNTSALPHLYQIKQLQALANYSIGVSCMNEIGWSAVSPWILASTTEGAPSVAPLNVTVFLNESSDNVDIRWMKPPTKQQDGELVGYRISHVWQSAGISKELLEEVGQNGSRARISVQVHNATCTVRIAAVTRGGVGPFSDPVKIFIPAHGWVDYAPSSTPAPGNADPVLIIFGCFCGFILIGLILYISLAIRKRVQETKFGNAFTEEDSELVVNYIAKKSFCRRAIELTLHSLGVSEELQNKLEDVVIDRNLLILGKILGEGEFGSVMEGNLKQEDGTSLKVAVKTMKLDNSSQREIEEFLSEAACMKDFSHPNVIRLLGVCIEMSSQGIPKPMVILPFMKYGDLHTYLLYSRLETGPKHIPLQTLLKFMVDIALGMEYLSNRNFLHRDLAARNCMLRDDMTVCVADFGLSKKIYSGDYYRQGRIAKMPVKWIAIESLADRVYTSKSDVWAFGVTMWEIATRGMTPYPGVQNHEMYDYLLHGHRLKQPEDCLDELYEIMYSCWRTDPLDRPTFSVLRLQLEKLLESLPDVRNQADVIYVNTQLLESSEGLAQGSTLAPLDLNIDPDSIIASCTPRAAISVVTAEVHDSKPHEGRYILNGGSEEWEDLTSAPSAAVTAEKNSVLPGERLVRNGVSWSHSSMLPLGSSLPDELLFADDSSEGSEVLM

[6] = target: T3, Mitogen-activated protein kinase kinase kinase 2 (Homo sapiens) (UniProt Q9Y2U5); assay: Inhibition of human MEKK2 using myelin basic protein as substrate at 1 uM in presence of 32P-ATP by Hotspot assay relative to control; values are per cent of control
T3 sequence (whole entry): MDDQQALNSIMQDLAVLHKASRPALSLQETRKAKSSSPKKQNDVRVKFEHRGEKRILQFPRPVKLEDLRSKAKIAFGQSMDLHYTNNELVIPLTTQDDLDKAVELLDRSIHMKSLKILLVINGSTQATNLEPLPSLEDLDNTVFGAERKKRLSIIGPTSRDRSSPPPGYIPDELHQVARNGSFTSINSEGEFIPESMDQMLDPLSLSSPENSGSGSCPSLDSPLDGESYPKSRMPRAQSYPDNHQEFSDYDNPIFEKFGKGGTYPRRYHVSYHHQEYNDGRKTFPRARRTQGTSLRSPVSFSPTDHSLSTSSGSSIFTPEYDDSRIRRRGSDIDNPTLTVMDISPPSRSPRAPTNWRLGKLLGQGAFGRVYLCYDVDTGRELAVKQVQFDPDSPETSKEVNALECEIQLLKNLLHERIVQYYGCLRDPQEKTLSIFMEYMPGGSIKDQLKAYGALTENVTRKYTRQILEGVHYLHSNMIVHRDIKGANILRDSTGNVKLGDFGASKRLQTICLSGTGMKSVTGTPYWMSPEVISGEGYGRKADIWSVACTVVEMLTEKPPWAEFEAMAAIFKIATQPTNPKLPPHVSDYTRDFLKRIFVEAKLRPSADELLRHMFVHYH

[7] = target: Calcium/calmodulin-dependent protein kinase type 1B (Homo sapiens) (UniProt Q6P2M8); assay: Inhibition of human CAMK1b using KKALRRQETVDAL as substrate at 1 uM in presence of 32P-ATP by Hotspot assay relative to control; values are per cent of control
Chain of Calcium/calmodulin-dependent protein kinase type 1B (Homo sapiens) (Q6P2M8 whole entry): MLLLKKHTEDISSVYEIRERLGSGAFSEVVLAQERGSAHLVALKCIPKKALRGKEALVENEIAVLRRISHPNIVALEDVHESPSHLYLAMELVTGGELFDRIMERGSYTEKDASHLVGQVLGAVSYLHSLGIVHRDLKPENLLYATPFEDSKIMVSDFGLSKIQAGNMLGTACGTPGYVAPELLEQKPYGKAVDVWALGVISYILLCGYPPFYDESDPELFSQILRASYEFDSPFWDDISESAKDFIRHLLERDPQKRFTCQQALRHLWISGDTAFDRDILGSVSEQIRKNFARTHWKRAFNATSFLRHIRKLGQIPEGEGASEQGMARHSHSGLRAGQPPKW

Chain of Ribosomal protein S6 kinase alpha-5 (Homo sapiens) (O75582 whole entry, looked up): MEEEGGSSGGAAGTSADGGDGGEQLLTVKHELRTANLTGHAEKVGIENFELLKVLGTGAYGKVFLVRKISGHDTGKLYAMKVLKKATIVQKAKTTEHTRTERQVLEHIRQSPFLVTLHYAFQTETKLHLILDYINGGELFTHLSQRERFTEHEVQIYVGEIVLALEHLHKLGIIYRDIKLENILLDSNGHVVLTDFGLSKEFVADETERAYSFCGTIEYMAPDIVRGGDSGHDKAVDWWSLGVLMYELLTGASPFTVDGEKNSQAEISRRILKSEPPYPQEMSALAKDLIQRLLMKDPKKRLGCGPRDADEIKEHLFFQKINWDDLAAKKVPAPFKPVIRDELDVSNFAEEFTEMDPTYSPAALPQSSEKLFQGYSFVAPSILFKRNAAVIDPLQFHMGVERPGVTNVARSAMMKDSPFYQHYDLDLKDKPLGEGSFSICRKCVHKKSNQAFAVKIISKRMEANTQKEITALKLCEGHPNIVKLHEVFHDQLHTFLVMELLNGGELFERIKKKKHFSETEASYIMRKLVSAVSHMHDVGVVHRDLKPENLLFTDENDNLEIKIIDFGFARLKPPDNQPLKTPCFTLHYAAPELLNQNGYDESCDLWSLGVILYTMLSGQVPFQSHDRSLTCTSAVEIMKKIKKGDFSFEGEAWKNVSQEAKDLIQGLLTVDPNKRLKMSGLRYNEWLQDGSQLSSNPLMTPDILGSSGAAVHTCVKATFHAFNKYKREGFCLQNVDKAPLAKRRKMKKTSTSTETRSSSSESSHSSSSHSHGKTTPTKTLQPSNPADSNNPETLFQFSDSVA

| Structure (SMILES) | residual activity [1] | residual activity [2] | residual activity [3] | residual activity [4] | residual activity [5] | residual activity [6] | residual activity [7] |
| --- | --- | --- | --- | --- | --- | --- | --- |
| Cc1cc(-c2cnc(N)c3c(-c4ccc5scnc5c4)csc23)n(C)n1 | 97.4% | 104% | 92.8% | 6.75% | 89.1% | 106% | 98.5% |
| CC(C)S(=O)(=O)c1ccc2nccc(Nc3ccc4scnc4c3)c2c1 | 97.9% | 94.5% | 93.3% | 41.8% | 93.8% | 92.2% | 87.8% |
| CNC(=O)c1ccc2c(c1)ncn2-c1ccc(CC(=O)OC(C)(C)C)cc1 | 89.4% | 99.6% | 87.5% | 99.7% | 102% | 100% | 90.2% |
